Data published in patent publication US11980616B2, “Treating liver disease by selectively eliminating senescent cells” (Buck Institute for Research on Aging, priority 2014, dated 2024).

Tests used:
[1] = tested on: non-senescent pre-adipocytes (Non Sen Pread); assay: Cell count toxicity assay, non-senescent pre-adipocytes; format: cell-based; settings: 0, 2.5, 10 μM, 11 days
Method: (§1) Non-senescent aortic endothelial (Endo Aort) cells and pre-adipocytes (Pread) were also treated with varying concentrations (0, 2.5 μM, and 10 μM) of Nutlin-3a for a period of 11 days to assess Nutlin-3a toxicity, as described above. Cell counts were taken at the start at Day 0 (NS start) and at the end of Nutlin-3a treatment (NS 0). The difference between counts of cells not treated with Nutlin-3a on day 11 (NS 0) and cell counts from NS start reflects the cell growth over the indicated time period. […] Decrease in apparent survival between NS 0 and NS 2.5 and between NS 0 and NS 10 reflects a decrease in cell growth.

LDLR-/- mice fed a HFD = assay: Atherosclerosis model, LDLR-/- mice fed a high fat diet; format: in vivo, mouse
From the text: Schematics of two atherosclerosis mouse models are presented in FIGS. 43A-B. The study illustrated in FIG. 43A assessed the extent to which clearance of senescent cells from plaques in LDLR^−/− mice with Nutlin-3A reduces plaque load. Two groups of LDLR^−/− mice (10 weeks) are fed a high fat diet (HFD) (Harlan Teklad TD.88137) having 42% calories from fat, beginning at Week 0 and throughout the study. Two groups of LDLR^−/− mice (10 weeks) are fed normal chow (−HFD). From weeks 0-2, one group of HFD mice and −HFD mice are treated with Nutlin-3A (25 mg/kg, intraperitoneally). One treatment cycle is 14 days treatment, 14 days off. Vehicle is administered to one group of HFD mice and one group of −HFD mice. At week 4 (timepoint 1), one group of mice are sacrificed and to assess presence of senescent cells in the plaques. For the some of the remaining mice, Nutlin-3A and vehicle administration is repeated from weeks 4-6. At week 8 (timepoint 2), the mice are sacrificed and to assess presence of senescent cells in the plaques. The remaining mice are treated with Nutlin-3A or vehicle from weeks 8-10. At week 12 (timepoint 3), the mice are sacrificed and to assess the level of plaque and the number of senescent cells in the plaques.
Plasma lipid levels were measured in LDLR^−/− mice fed a HFD and treated with Nutlin-3A or vehicle at timepoint 1 as compared with mice fed a −HFD (n=3 per group). Plasma was collected mid-afternoon and analyzed for circulating lipids and lipoproteins.
At the end of timepoint 1, LDLR^−/− mice fed a HFD and treated with Nutlin-3A or vehicle were sacrificed (n=3, all groups), and the aortic arches were dissected for RT-PCR analysis of SASP factors and senescent cell markers. Values were normalized to GAPDH and expressed as fold-change versus age-matched, vehicle-treated LDLR^−/− mice on a normal diet.
At the end of timepoint 2, LDLR^−/− mice fed a HFD and treated with Nutlin-3A or vehicle (n=3 for all groups) were sacrificed, and aortic arches were dissected for RT-PCR analysis of SASP factors and senescent cell markers. Values were normalized to GAPDH and expressed as fold-change versus age-matched, vehicle-treated LDLR^−/− mice on a normal diet.
At the end of timepoint 3, LDLR^−/− mice fed a HFD and treated with Nutlin-3A or vehicle (n=3 for all groups) were sacrificed, and aortas were dissected and stained with Sudan IV to detect the presence of lipid. Body composition of the mice was analyzed by MRI, and circulating blood cells were counted by Hemavet. […] As shown in FIGS. 48A-B, the platelet and lymphocyte counts were equivalent between the Nutlin-3A and vehicle treated mice.

[2] = tested on: non-senescent aortic endothelial (Non Sen Endo Aort) cells; assay: Cell count toxicity assay, non-senescent aortic endothelial cells; format: cell-based; settings: 0, 2.5, 10 μM, 11 days
Method: as §1

[3] = tested on: p16-3MR mice treated with paclitaxel; assay: Voluntary exercise (wheel counts) after paclitaxel in p16-3MR mice; format: in vivo, mouse; settings: ABT-263 100 mg/kg i.p. daily 7 days; ganciclovir 25 mg/kg i.p. daily 3 days
Method: The capability of a senolytic agent, such as ABT-263, to reduce chemotherapy related side effects, such as fatigue, was examined in p16-3MR transgenic mice. In addition to doxorubicin, paclitaxel also induces cellular senescence when administered to animals. See Example 2 for a description of the p16-3MR transgenic mouse model.
In this experiment, paclitaxel was administered to groups of p16-3mr mice (n=4) three times, every two days. Two days after the third dose of paclitaxel, ganciclovir was administered daily for three days (days 1, 2, and 3) intraperitoneally at 25 mg/kg. ABT-263 (100 mg/kg) was administered intraperitoneally daily for seven days after paclitaxel administration. Two days after the last dose of ABT-263, all groups of animals were housed in metabolic cages (promethion, sable systems international, Las Vegas, NV) to monitor voluntary exercise as determined by wheel counts. Data were collected and analyzed two days later. Clearance of senescent cells by ABT-263 and ganciclovir restored approximately 70% of wheel count reduction caused by chemotherapy treatment.

[4] = tested on: p16-3MR mice fed a high fat diet; assay: Glucose tolerance and insulin sensitivity in p16-3MR mice fed a high fat diet; format: in vivo, mouse
Method: Groups of p16-3MR mice (n=9) were fed a high fat diet for four months mice or a regular chow diet. Animals were then treated with ganciclovir (3 rounds of 25 mg/kg ganciclovir administered daily for five consecutive days) or vehicle. A glucose bolus was given at time zero, and blood glucose was monitored at 20, 30, 60, and 120 minutes after delivering glucose to determine glucose disposal (see FIG. 69A). […] Insulin sensitivity was also determined (Insulin Tolerance Testing (ITT)). […] Changes in weight, body composition, and food intake were also monitored.

[5] = 3 rounds of 25 mg/kg daily for five days, vs vehicle

SMILES	Proliferation (percent growth) [1]	Toxicity (cell number vs starting level) [1]	Expression of SASP factors and senescent cell markers in aortic arch (RT-PCR) (LDLR-/- mice fed a HFD; 25 mg/kg i.p., after 1 treatment cycle, MMP3, MMP13, PAI1, p21, IGFBP2, IL-1A, IL-1B)	Expression of SASP factors and senescent cell markers in aortic arch (RT-PCR) (LDLR-/- mice fed a HFD; 25 mg/kg i.p., multiple (two) treatment cycles)	Reduction of plaques in the descending aorta (Sudan IV) (LDLR-/- mice fed a HFD; 25 mg/kg i.p., three treatment cycles, week 12) [%]	Lymphocyte count vs vehicle (LDLR-/- mice fed a HFD; three treatment cycles)	Platelet count vs vehicle (LDLR-/- mice fed a HFD; three treatment cycles)	Proliferation (percent growth) [2]	Toxicity (cell number vs starting level) [2]	Restoration of wheel count reduction caused by chemotherapy [3]	Insulin Tolerance Testing: blood glucose ([4]; 0, 14, 30, 60, and 120 minutes)	Glucose tolerance test AUC [4, 5]	Hemoglobin A1c [4, 5]
COc1ccc(C2=N[C@@H](c3ccc(Cl)cc3)[C@@H](c3ccc(Cl)cc3)N2C(=O)N2CCNC(=O)C2)c(OC(C)C)c1 [Nutlin-3a]	reduces proliferation	non-toxic	reduced expression of several SASP factors and senescent cell markers	reduced expression of most markers	~45	equivalent	equivalent	reduces proliferation	non-toxic	–	–	–	–
Nc1nc(O)c2ncn(COC(CO)CO)c2n1 [ganciclovir]	–	–	–	–	–	–	–	–	–	approximately 70%	greater decrease in blood glucose	significantly lower	lower
